# Measurements from patent US12070458B2, “Therapeutic agent composition and method of use, for treatment of mild congnitive impairment, depression, and psychological disorders” (priority 2018, dated 2024).
# System: patients with major depressive disorder
# Test: Double-blind, randomized, placebo-controlled, active reference study in patients with major depressive disorder
# Type: in vivo, human
# Conditions: for change from baseline in MADRS total score, Mean ± SD / MADRS total score, Difference to Placebo: week 6
# From the text: This randomized, double-blind, fixed-dose, placebo-controlled, active reference study recruited 32 randomized patients in accordance with the principles of Good Clinical Practice [ICH (1996). Harmonized Tripartite Guideline E6: Guideline for Good Clinical Practice (http://www.fda.gov/downloads/drugs/guidancecomplianceregulatoryinformation/gui dances/ucm073122.pdf)] and the Declaration of Helsinki [WMA (1964). Ethical Principles for Medical Research Involving Human Subjects (http://www.wma.net/en/30publications/10policies/b3/). World Medical Association.] Local ethics committees approved the study design and eligible patients gave their written informed consent before participating.
# Eligible patients were randomized equally (1:1:1:1) to one of the four treatment arms for a 6-week double-blind treatment period. Randomized patients were given 1-week wallet cards at each visit and were instructed to take two capsules per day, orally, at the same time every day (preferably in the morning). NA-831 was dosed at 20 mg/day or 40 mg/d for 6 week and venlafaxine at 75 mg/d over 6-week treatment period. Efficacy and tolerability were assessed at screening, baseline and after 1, 2, 3, 4, 5, and 6 week. Patients were contacted for a safety follow-up 4 week after the completion visit.
# Patients with MDD presenting with a current major depressive episode according to DSM-IV-TR criteria were included in the study if they were an outpatient of either sex, aged from 20 yr to 65 yr, (mean=39.7±8.5) (with a Montgomery—Åsberg Depression Rating Scale (MADRS) (Montgomery & Åsberg, 1979) total score ≥30 at the baseline visit. [Montgomery S Åsberg M (1979). A new depression scale designed to be sensitive to change. British Journal of Psychiatry 134 382-389.https://doi.org/10.1192/bjp.134.4.382]
# Patients were evaluated using the MADRS from baseline to week 6. Rater training was undertaken to increase inter-rater reliability, and was supervised by an experienced investigator. Only those investigators who had actively participated in rater training sessions prior to inclusion of patients into the study were allowed to rate patients. Patient ratings were assessed by the same investigator at each visit, whenever possible.
# All safety analyses were based on the all-patients-treated set (APT), comprising all randomized patients who took at least one dose of study medication. All efficacy analyses were based on a modified intent-to-treat set (ITT)—the full-analysis set (FAS), comprising all patients in the […] who had at least one valid post-baseline MADRS total score assessment.
# Four hypotheses were part of the primary efficacy analysis, which was fully adjusted for multiplicity using a hierarchical testing procedure at the 5% level of significance as long as the previous hypothesis was rejected. The order of testing was: no difference between the 20 mg dose vs. placebo at week 6, no difference between […] at week 6, no difference between 20 mg dose vs. placebo at week 1, and finally no difference between 40 mg dose vs. placebo at week 1. The statistical model was an analysis of covariance (ANCOVA) of the change from baseline in MADRS total score (FAS, LOCF) with treatment and site as fixed factors and the baseline MADRS score as a covariate. The primary efficacy analysis was repeated on observed cases (OC) data, using both an ANCOVA and a mixed model for repeated measurements (MMRM).
# All adverse effects (AEs) (including any change in concurrent illnesses or new illnesses) either observed by the investigator or reported spontaneously by the patient were recorded. AEs were coded using the lowest level term according to the Medical Dictionary for Regulatory Activities, version 10.0. As a post-hoc analysis, the safety database was searched at preferred-term and verbatim-term level for possible suicide-related AEs, as described by the FDA [Laughren (2006). Memorandum on Suicidality. (http://www.fda.gov/ohrms/dockets/ac/06/briefing/2006-4272b1-01-fda.pdf)].
smiles,measurement,setting,value
"O=C1NCC(=O)N2CCC[C@@H]12 [cPG, cyclic Prolyl Glycine]","change from baseline in MADRS total score, Mean ± SD","LOCF, ANCOVA, 20 mg/day orally",−22.4 ± 1.0
same,"change from baseline in MADRS total score, Mean ± SD","LOCF, ANCOVA, 40 mg/d orally",−23.2 ± 1.0
same,"change from baseline in MADRS total score, Mean ± SD","MMRM, 20 mg/day orally",−22.3 ± 0.9
same,"change from baseline in MADRS total score, Mean ± SD","MMRM, 40 mg/d orally",−24.9 ± 1.1
same,"MADRS total score, Difference to Placebo","OC, ANCOVA, 20 mg/day orally",−5.7 ± 1.3
same,"change from baseline in MADRS total score, Mean ± SD","OC, ANCOVA, 20 mg/day orally",−22.3 ± 0.9
same,"MADRS total score, Difference to Placebo","OC, ANCOVA, 40 mg/d orally",−7.8 ± 1.3
same,"change from baseline in MADRS total score, Mean ± SD","OC, ANCOVA, 40 mg/d orally",−24.4 ± 1.0
same,tolerability,"human, in vivo",well tolerated
